Assay results from patent US9365522B2, “Pyrazole amide derivative” (AMGEN INC., priority 2015, dated 2016).

Target: T1, ligand binding domain of human ROR gamma (Homo sapiens, UniProt P51449)
T1 construct: NM_001001523; expressed in transfected cells; host or cells: HEK293T
T1 sequence (P51449 247-497 isoform P51449-2): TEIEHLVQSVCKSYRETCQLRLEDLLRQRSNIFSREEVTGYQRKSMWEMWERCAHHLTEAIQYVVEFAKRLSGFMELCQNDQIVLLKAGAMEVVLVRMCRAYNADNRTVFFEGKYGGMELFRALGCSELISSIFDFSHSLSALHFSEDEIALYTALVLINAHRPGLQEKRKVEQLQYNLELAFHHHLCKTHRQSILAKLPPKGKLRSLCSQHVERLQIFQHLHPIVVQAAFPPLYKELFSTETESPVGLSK
Assay: ROR gamma reporter gene assay (GAL4-RORγ LBD luciferase, Dual-Glo)
Type: cell-based
Conditions: HEK293T cells transfected with pM-ROR gamma, 8 concentrations 3.5 nM to 10.5 μM, 24 h incubation; read-out: result (pIC50, inhibition of RORγ transcriptional activity) (converted)
In short: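 First, HEK293T cells are transfected with the GAL4–RORγ LBD construct, a 5×UAS luciferase reporter and a constitutive renilla control. Next, test compounds are added over eight concentrations (3.5 nM to 10.5 μM). After 24 h at 37 °C, Dual-Glo luminescence is measured and pIC50 fitted.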

| Structure (SMILES) | IC50 [pM] |
| --- | --- |
| CC1(C)CCC(N(CC(=O)c2c(Cl)cncc2Cl)C(=O)c2cnn([C@H]3CC[C@](C)(C(=O)O)CC3)c2C(F)(F)F)CC1 [Example 229, trans-4-(4-((2-(3,5-dichloropyridin-4-yl)-2-oxoethyl)-(4,4-dimethylcyclohexyl)carbamoyl)-5-(trifluoromethyl)pyrazol-1-yl)-1-methylcyclohexane-1-carboxylic acid] | 12900 |
| CN1CCC(N(CC(=O)c2c(Cl)cc(F)cc2Cl)C(=O)c2cnn([C@H]3CC[C@](C)(C(=O)O)CC3)c2C(F)(F)F)CC1 [Example 295, trans-4-(4-((2-(2,6-dichloro-4-fluorophenyl)-2-oxoethyl)-(1-methylpiperidin-4-yl)carbamoyl)-5-(trifluoromethyl)pyrazol-1-yl)-1-methylcyclohexane-1-carboxylic acid] | 5.62e+06 |
| O=C(CN(Cc1cc(F)cc(F)c1)C(=O)c1cnn([C@H]2CC[C@H](C(=O)O)CC2)c1C(F)(F)F)c1cc[nH]n1 [Example 8, trans-4-(4-((3,5-difluorobenzyl)(2-oxo-2-(1H-pyrazol-3-yl)ethyl)carbamoyl)-5-(trifluoromethyl)-1H-pyrazol-1-yl)cyclohexanecarboxylic acid] | > 1e+07 |
| CC1(C)CCC(N(CC(=O)c2c(Cl)cc(F)cc2Cl)C(=O)c2cnn([C@H]3C[C@@H](C(=O)O)C3)c2C(F)(F)F)CC1 [Example 291, cis-3-(4-((2-(2,6-dichloro-4-fluorophenyl)-2-oxoethyl)-(4,4-dimethylcyclohexyl)carbamoyl)-5-(trifluoromethyl)pyrazol-1-yl)cyclobutane-1-carboxylic acid] | 1.02e+06 |
| CC(C)(C)O[C@H]1C[C@H](N(CC(=O)c2c(Cl)cncc2Cl)C(=O)c2cnn([C@H]3CC[C@H](C(=O)O)CC3)c2C(F)(F)F)C1 [Example 176, trans-4-(4-((2-(3,5-dichloropyridin-4-yl)-2-oxoethyl)-(3-((2-methylpropan-2-yl)oxy)cyclobutyl)carbamoyl)-5-(trifluoromethyl)pyrazol-1-yl)cyclohexane-1-carboxylic acid] | 2.57e+06 |
| CC1(C)[C@@H]2C[C@H](N(CCc3n[nH]c4cccc(Cl)c34)C(=O)c3cnn([C@H]4CC[C@](C)(C(=O)O)CC4)c3C(F)(F)F)C[C@@H]21 [Example 376, trans-4-(4-((2-(4-chloro-1H -indazol-3-yl)ethyl)((1R,3r,5S)-6,6-dimethylbicyclo[3.1.0]hexan-3-yl)carbamoyl)-5-(trifluoromethyl)-1H-pyrazol-1-yl)-1-methylcyclohexanecarboxylic acid] | 309000 |
| O=C(CN(Cc1cc(F)cc(F)c1)C(=O)c1cnn([C@H]2CC[C@H](C(=O)O)CC2)c1C(F)(F)F)c1ccc(C(F)(F)F)cc1Cl [Example 136, trans-4-(4-((2-(2-chloro-4-(trifluoromethyl)phenyl)-2-oxoethyl)-((3,5-difluorophenyl)methyl)carbamoyl)-5-(trifluoromethyl)pyrazol-1-yl)cyclohexane-1-carboxylic acid] | 83200 |
| CC(C)(C)CN(CC(=O)c1c(Cl)cc(Cl)cc1Cl)C(=O)c1cnn([C@H]2CC[C@](C)(C(=O)O)CC2)c1C(F)(F)F [Example 221, trans-4-(4-(2,2-dimethylpropyl-(2-oxo-2-(2,4,6-trichlorophenyl)ethyl)carbamoyl)-5-(trifluoromethyl)pyrazol-1-yl)-1-methylcyclohexane-1-carboxylic acid] | 2950 |
| C[S+](=O)([O-])[C@H]1CC[C@H](n2ncc(C(=O)N(CC(=O)c3c(Cl)cncc3Cl)Cc3ccc(F)cc3)c2C(F)(F)F)CC1 [Example 87, N-(2-(3,5-dichloropyridin-4-yl)-2-oxoethyl)-N-(4-fluorobenzyl)-1-(trans-4-(methylsulfonyl)cyclohexyl)-5-(trifluoromethyl)-1H-pyrazole-4-carboxamide] | 141000 |
| COc1cccc(Cl)c1[C@H](O)CN(C(=O)c1cnn([C@H]2CC[C@](C)(C(=O)O)CC2)c1C(F)(F)F)[C@H]1C[C@@H]2[C@H](C1)C2(C)C [Example 342, trans-4-(4-((2-(2-chloro-6-methoxyphenyl)-2-hydroxyethyl)((1R,3r,5S)-6,6-dimethylbicyclo[3.1.0]hexan-3-yl)carbamoyl)-5-(trifluoromethyl)-1H-pyrazol-1-yl)-1-methylcyclohexanecarboxylic acid] | 45700 |
| C[C@]1(C(=O)O)CC[C@H](n2ncc(C(=O)N(CC(=O)c3c(Cl)cncc3Cl)CC3(C(F)(F)F)CC3)c2Cl)CC1 [Example 388, trans-4-(5-chloro-4-((2-(3,5-dichloropyridin-4-yl)-2-oxoethyl)-((1-(trifluoromethyl)cyclopropyl)methyl)carbamoyl)pyrazol-1-yl)-1-methylcyclohexane-1-carboxylic acid] | 72400 |
| CC(C)(C)C(=O)N1CC(N(CC(=O)c2c(Cl)cncc2Cl)C(=O)c2cnn([C@H]3CC[C@H](C(=O)O)CC3)c2C(F)(F)F)C1 [Example 173, trans-4-(4-((2-(3,5-dichloropyridin-4-yl)-2-oxoethyl)-(1-(2,2-dimethylpropanoyl)azetidin-3-yl)carbamoyl)-5-(trifluoromethyl)pyrazol-1-yl)cyclohexane-1-carboxylic acid] | > 1e+07 |
| CC1(C)[C@@H]2C[C@H](N(CC(O)c3ncncc3Cl)C(=O)c3cnn([C@H]4CC[C@](C)(C(=O)O)CC4)c3C(F)(F)F)C[C@@H]21 (stereo partly drawn) [Example 408, trans-4-(4-((2-(5-chloropyrimidin-4-yl)-2-hydroxyethyl)((1R,3r,5S)-6,6-dimethylbicyclo[3.1.0]hexan-3-yl)carbamoyl)-5-(trifluoromethyl)-1H-pyrazol-1-yl)-1-methylcyclohexanecarboxylic acid] | 331000 |
| O=C(CN(Cc1cc(F)cc(F)c1)C(=O)c1cnn([C@H]2CC[C@H](C(=O)O)CC2)c1C(F)(F)F)c1c(Cl)n[nH]c1Cl [Example 209, trans-4-(4 ((2-(3,5-dichloro-1H-pyrazol-4-yl)-2-oxoethyl)-((3,5-difluorophenyl)methyl)carbamoyl)-5-(trifluoromethyl)pyrazol-1-yl)cyclohexane-1-carboxylic acid] | > 1e+07 |
| CC(C)(C)CN(CC(=O)c1c(Cl)cc(Cl)cc1Cl)C(=O)c1cnn(C23CCC(C(=O)O)(CC2)CC3)c1C(F)(F)F [Example 246, 4-(4-(2,2-dimethylpropyl-(2-oxo-2-(2,4,6-trichlorophenyl)ethyl)carbamoyl)-5-(trifluoromethyl)pyrazol-1-yl)bicyclo[2.2.2]octane-1-carboxylic acid] | 11500 |

Second part, the compound after the results:

| IC50 [pM] | Structure (SMILES) |
| --- | --- |
| 1.02e+06 | CC1(C#N)CCC(N(CC(=O)c2c(Cl)cncc2Cl)C(=O)c2cnn([C@H]3CC[C@H](C(=O)O)CC3)c2C(F)(F)F)C1 (stereo partly drawn) [Example 210, trans-4-(4-((3-cyano-3-methylcyclopentyl)-(2-(3,5-dichloropyridin-4-yl)-2-oxoethyl)carbamoyl)-5-(trifluoromethyl)pyrazol-1-yl)cyclohexane-1-carboxylic acid] |
| 56200 | CC(C)(C)CN(CC(=O)c1c(Cl)cncc1Cl)C(=O)c1cnn([C@H]2CC[C@H](C(=O)O)CC2)c1C(F)(F)F [Example 27, trans-4-(4-((2-(3,5-dichloropyridin-4-yl)-2-oxoethyl)(neopentyl)carbamoyl)-5-(trifluoromethyl)-1H-pyrazol-1-yl)cyclohexanecarboxylic acid] |
| 1.17e+06 | O=C(CN(Cc1nc(Cl)cs1)C(=O)c1cnn([C@H]2CC[C@H](C(=O)O)CC2)c1C(F)(F)F)c1c(Cl)cncc1Cl [Example 165, trans-4-(4-((4-chloro-1,3-thiazol-2-yl)methyl-(2-(3,5-dichloropyridin-4-yl)-2-oxoethyl)carbamoyl)-5-(trifluoromethyl)pyrazol-1-yl)cyclohexane-1-carboxylic acid] |
| 112000 | O=C(CN(C(=O)c1cnn([C@H]2CC[C@H](C(=O)O)CC2)c1C(F)(F)F)C1Cc2ccccc2C1)c1c(Cl)cncc1Cl [Example 180, trans-4-(4-((2-(3,5-dichloropyridin-4-yl)-2-oxoethyl)-(2,3-dihydro-1H-inden-2-yl)carbamoyl)-5-(trifluoromethyl)pyrazol-1-yl)cyclohexane-1-carboxylic acid] |
| 224000 | CC(C1CCCC1)N(CC(=O)c1c(Cl)cncc1Cl)C(=O)c1cnn([C@H]2CC[C@H](C(=O)O)CC2)c1C(F)(F)F (stereo partly drawn) [Example 187, trans-4-(4-(1-cyclopentylethyl-(2-(3,5-dichloropyridin-4-yl)-2-oxoethyl)carbamoyl)-5-(trifluoromethyl)pyrazol-1-yl)cyclohexane-1-carboxylic acid] |
| 22400 | CC1(C)[C@@H]2C[C@H](N(CC(=O)c3c(Cl)cncc3Cl)C(=O)c3cnn([C@H]4CC[C@H](C(=O)O)CC4)c3C(F)(F)F)C[C@@H]21 [Example 211, trans-4-(4-((2-(3,5-dichloropyridin-4-yl)-2-oxoethyl)-((1R,3r,5S)-6,6-dimethyl-3-bicyclo[3.1.0]hexanyl)carbamoyl)-5-(trifluoromethyl)pyrazol-1-yl)cyclohexane-1-carboxylic acid] |
| 1.82e+06 | O=C(CN(C(=O)c1cnn([C@H]2CC[C@H](C(=O)O)CC2)c1C(F)(F)F)C1CCCC1)c1c(Cl)cncc1Cl [Example 185, trans-4-(4-(cyclopentyl-(2-(3,5-dichloropyridin-4-yl)-2-oxoethyl)carbamoyl)-5-(trifluoromethyl)pyrazol-1-yl)cyclohexane-1-carboxylic acid] |
